The values that follow come from publication PMC6328587 (Nature Communications, 2019).

In this assay the target is T1, FLAG-p38δ (Homo sapiens, UniProt O15264).
T1 construct: expressed in transfected cells; host or cells: HeLa
T1 sequence (O15264 1-365): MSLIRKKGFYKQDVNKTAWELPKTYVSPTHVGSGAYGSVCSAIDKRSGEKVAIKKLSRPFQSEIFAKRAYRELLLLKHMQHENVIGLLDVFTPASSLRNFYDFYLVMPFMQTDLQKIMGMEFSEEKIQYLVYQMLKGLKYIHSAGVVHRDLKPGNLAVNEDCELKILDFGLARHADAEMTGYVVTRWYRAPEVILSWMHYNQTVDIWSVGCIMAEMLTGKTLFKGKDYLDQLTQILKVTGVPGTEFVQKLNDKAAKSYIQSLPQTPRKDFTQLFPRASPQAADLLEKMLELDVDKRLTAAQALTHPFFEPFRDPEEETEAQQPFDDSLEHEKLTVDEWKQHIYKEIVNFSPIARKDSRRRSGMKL
The experiment in a line: TUBE1 immunoprecipitation of poly-Ub p38δ in HeLa cells. The following applies: 1 µM PROTAC, 3 hours. The assay is classed as cell-based. Here is the method:
TUBE1 immunoprecipitation experiments were carried out exactly as described above, except for the fact that 1 mg of normalized HeLa lysate was loaded onto 20 µL TUBE1 agarose (LifeSensors) resin per sample.
WCL IP : TU B E 1 DMS SJF SJF
Supplementary Figure 7. SJFδ in d u ces p o lyu b iq u itin atio n o f p 38δ(related to F ig u re 4).
HeLa cells were co-transfected with HA-Ub and FLAG p38δ and treated with vehicle (DM SO ), 1 µM SJFα, or 1 µM SJFδ for 3 hours. Lysates were im m unoprecipitated with tandem ubiquitin binding entity (TUBE1) agarose beads and assessed by western blots detecting FLAG (p38δ).
TUBE1 binds tetra ubiquitin chains with high affinity, thereby enriching for polyubiquitinated proteins. In this assay, HA (Ub) serves as an im m unoprecipitation control for poly-Ub TUBE1 […]

With `COc1cc2c(Oc3ccc(NC(=O)C4(C(=O)Nc5ccc(F)cc5)CC4)cc3F)ccnc2cc1OCCOCCOCCOc1cc(-c2scnc2C)ccc1CNC(=O)[C@@H]1C[C@@H](O)CN1C(=O)[C@H](C(C)C)N1Cc2ccccc2C1=O` [SJFδ], the “TUBE1-reactivity (poly-Ub p38δ)” value is listed as “increased TUBE1-reactivity”.
